PMC8006935, “Study of Combinatorial Drug Synergy of Novel Acridone Derivatives With Temozolomide Using in-silico and in-vitro Methods in the Treatment of Drug-Resistant Glioma” (Frontiers in Oncology, 2021)
Read-outs that look alike come from different tables or passages of the source.

Assays:
[1] = system: Drug resistant cancer cells (CR), T-98; assay: Mathematical tumor growth model simulation and Bliss synergy, drug resistant cancer cells
[2] = Sulforhodamine B assay, Vero control cells; type: cell-based; conditions: African green monkey, Vero cells (normal kidney epithelial cells), SRB, read-out: Vero cell Line CC50
Procedure: (§1) In order to test the growth inhibition potential of the TMZ and Acridone derivatives on Glioma, the U-87 (Uppsala 87) Glioma cell lines and T-98 (Temozolomide resistant) Glioma cell lines were treated with Temozolomide (TMZ) and Acridone derivatives AC2, AC7, and AC26. The African Green Monkey Kidney Vero cell lines were used as control for the study. The Vero cell lines were obtained from the National Center for Cell Sciences (NCCS), Pune, while the U-87 and T-98 cell lines were carried in the lab of Dr. GJ Peters, Cancer Center Amsterdam (CCA), VU University Medical Center, Amsterdam, Netherlands. The Mycoplasma testing was done by using the Universal Mycoplasma Detection Kit (ATCC® 30-1012K™) every 6 months. The Vero cell lines have been used as control as they are normal kidney epithelial cells and are non-cancerous in nature. The Vero cell lines have been routinely used for testing cytotoxicity of small molecules by various researchers ([22], [23]). Also, in our previous study, Vero cell lines have been used for testing safety and efficacy of Acridone derivatives for Lung, Cervical, and Breast Cancer studies ([13]).
(§2) Cell viability was found using the Sulforhodamine B (SRB) assay to measure the cellular protein content which provides better sensitivity in comparison to MTT assay ([24]). Moreover, as this method is dependent on the property of the SRB dye, it acts by binding to proteins under slightly acidic conditions and can be exposed to basic conditions for its extraction. The resulting amount of bound dye is then utilized as a proxy for cell mass ([25]). This cell mass can then be extrapolated to measure cell growth.
Glioma cells were cultured in Gibco (RPMI 1640) complemented with 10% fetal calf serum (Gibco). The cultures were then treated with trypsin-EDTA in order to detach/separate the cells from their culture flasks. The quickly proliferating cells were harvested, counted and plated at suitable concentrations in 96-well microplates. These microplates were subsequently incubated for 24 h. After incubation, drug compounds were dissolved in the culture media and placed in 96 well plates in triplicates, which were again incubated at 37°C under 5% CO2 for 72 h. 72 h later, the plates were removed and the cells were treated with cold Trichloroacetic acid (TCA) to fix the cultures and. […] Thereafter, absorbance of the solution was measured at 540 nm utilizing a microplate reader. Absorbance readings (triplicate values) recorded were used to calculate percentage growth inhibition due to the effect of drugs using the following equations.
% Cell growth = Absorbance sample/Absorbance of control or untreated × 100 […]
The IC50 was calculated based on the log graph sheet which was developed in-house at the CCA, VU University Medical Center. […]

[3] = earlier studies, no reference given; cited from earlier work
[4] = system: T-98 (Temozolomide resistant) Glioma cell lines; assay: Sulforhodamine B assay, T-98 TMZ resistant Glioma cells; type: cell-based; conditions: for IC50: Glioma cell; for T-98/TMZRES SI: SI = CC50 of Vero cell line /IC50 of Cancer cell line after 72 h
Procedure: as §1, §2
(§3) Glioma cells were cultured in Gibco (RPMI 1640) complemented with 10% fetal calf serum (Gibco). The cultures were then treated with trypsin-EDTA in order to detach/separate the cells from their culture flasks. The quickly proliferating cells were harvested, counted and plated at suitable concentrations in 96-well microplates. These microplates were subsequently incubated for 24 h. After incubation, drug compounds were dissolved in the culture media and placed in 96 well plates in triplicates, which were again incubated at 37°C under 5% CO2 for 72 h. 72 h later, the plates were removed and the cells were treated with cold Trichloroacetic acid (TCA) to fix the cultures and. 0.4% of SRB dissolved in 1% acetic acid was then added to the culture in order to stain the cells. Next, the bound stain was dissolved in 150 μl of 10 mM unbuffered Tris base left on a gyrator shaker. Thereafter, absorbance of the solution was measured at 540 nm utilizing a microplate reader. Absorbance readings (triplicate values) recorded were used to calculate percentage growth inhibition due to the effect of drugs using the following equations.
(§4) % Cell growth = Absorbance sample/Absorbance of control or untreated × 100
(§5) % Growth inhibition = 100 - % cell growth
(§6) The IC50 was calculated based on the log graph sheet which was developed in-house at the CCA, VU University Medical Center.
(§7) Selectivity Index (SI) is a ratio that measures the window between cytotoxicity and anticancer activity of the drugs ([26]). […] Here, IC50 is the inhibition concentration for inhibiting 50% of cancer cells and CC50 is cytotoxic concentration causing death of 50% viable cells in the host.

[5] = pKa by UV-Vis spectrophotometer; type: physicochemical
Procedure: Characterization of acridone derivatives AC2, AC7, and AC26 were carried out by using all the chemicals of analytical grade. Hydrochloric acid and sodium hydroxide were procured from Sisco Research Lab Pvt. Ltd (Mumbai, India). Potassium dihydrogen orthophosphate, methanol and ortho-phosphoric acid (85% pure) was received from Loba Chemie Pvt. Ltd. (Mumbai, India). Sodium chloride was received from SD Fine-Chem Limited (Mumbai, India). Milli-pore water was used throughout the study. Chemical information like the molecular weight of compounds was determined by obtaining ESI-MS spectroscopy using methanol as solvent. pH calculated by using pH analyzer (Lab India) and PKa determined by using UV-Vis spectrophotometer (Shimadzu, Japan). Melting point was calculated by Digital Melting point apparatus (Veego India). Lipophilicity was determined by using software like Chem Draw 15 and ALGOPS 2.1 ([16]). In order to determine the Blood Brain Barrier (BBB) permeability of the compounds, we have used Online BBB Predictor (https://www.cbligand.org/BBB/predictor.php) using SVM Machine Learning algorithm and PubChem as the fingerprint ([17]).

[6] = parameters: method as in PMID 21565270; conditions: cited from earlier work
[7] = system: U-87 (Uppsala 87) Glioma cell lines; assay: Sulforhodamine B assay, U-87 drug sensitive Glioma cells; type: cell-based; conditions: for U-87/WT SI: SI = CC50 of Vero cell line /IC50 of Cancer cell line after 72 h; for IC50: 72 h, SRB, Mean ± Standard Deviations in Table 4, read-out: U-87/WT IC50
Procedure: as §1, §2, §3, §4, §5, §6, §7

[8] = 72 h, SRB, Mean ± Standard Deviations in Table 4, read-out: T-98/TMZRES IC50
[9] = drug administered individually, drug resistant cells, read-out: Initial IC50

## O=C(NN=CC=Cc1ccccc1)c1cccc2c(=O)c3ccccc3[nH]c12 [AC2, 9-oxo-N'-(3-phenylallylidene)-9,10-dihydroacridine-4-carbohydrazide]
[1]; combination TMZ + AC2
  % fold change [(final-initial)/initial]*100: 3.26%
  Fold change = final IC50/initial IC50: 0.96
[2]
  CC50 at 72 h: 56.2 µM
[3]
  cardiotoxicity, nephrotoxicity and necrosis: no cardiotoxicity, nephrotoxicity and necrosis
  liver histopathology: minimal hyperchromatic, anaplasia, and cellular infiltration
[4]; [8]
  IC50: 1.53 ± 0.25 µM
[4]; [9]
  IC50: 1.53 µM
[4]
  T-98/TMZRES SI: 36.73
[5]
  pKa: 8.03
[6]
  cytotoxicity in comparison to the other acridone derivatives: 100 times
[7]
  U-87/WT SI: 36.73
[7]; U87WT
  IC50: 1.53 ± 0.85 µM

## CC(=NNC(=O)c1cccc2c(=O)c3ccccc3[nH]c12)c1ccccc1O [AC26, N'(1-(2-hydroxyphenyl)ethylidene)-9-oxo-9,10-dihydroacridine-4-carbohydrazide]
[1]; combination TMZ + AC26
  Fold change = final IC50/initial IC50: 0.88
[2]
  CC50 at 72 h: 66.1 µM
[3]
  cardiotoxicity, nephrotoxicity and necrosis: no cardiotoxicity, nephrotoxicity and necrosis
  liver histopathology: minimal hyperchromatic, anaplasia, and cellular infiltration
[4]; [8]
  IC50: 0.76 ± 0.053 µM
[4]; [9]
  IC50: 0.76 µM
[4]
  T-98/TMZRES SI: 86.94
[5]
  pKa: 6.52
[6]
  cytotoxicity in comparison to the other acridone derivatives: 100 times
[7]; listed as Acridone 26
  IC50: 1 µM
[7]
  U-87/WT SI: 73.42
[7]; U87WT
  IC50: 0.9 ± 0.1 µM

## O=C(NN=Cc1ccccc1Cl)c1cccc2c(=O)c3ccccc3[nH]c12 [AC7, N'-(2-chlorobenzylidene)-9-oxo-9,10-dihydroacridine-4-carbohydrazide]
[1]; combination TMZ + AC7
  % fold change [(final-initial)/initial]*100: 8.5%
  Fold change = final IC50/initial IC50: 0.91
[2]
  CC50 at 72 h: 48.2 µM
[3]
  cardiotoxicity, nephrotoxicity and necrosis: no cardiotoxicity, nephrotoxicity and necrosis
  liver histopathology: minimal hyperchromatic, anaplasia, and cellular infiltration
[4]; [8]
  IC50: 1.05 ± 0.18 µM
[4]; [9]
  IC50: 1.05 µM
[4]
  T-98/TMZRES SI: 45.87
[5]
  pKa: 9.23
[6]
  cytotoxicity in comparison to the other acridone derivatives: 100 times
[7]
  U-87/WT SI: 8.49
[7]; U87WT
  IC50: 5.67 ± 0.58 µM
